Experimental data taken from patent US10570122B2, “Compounds with anti-tumoral activity” (AB Science, priority 2015, dated 2020).

Experiments:
A549 = assay: CellTiter-Blue cell-based survival/proliferation assay, A549; conditions: Homo sapiens; A549 lung tumor cell line, 48 h
Procedure, shortened: (§1)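 Compounds, diluted tenfold serially over 0–10 μM, are applied to 1·10^4 seeded cells per well for 48 h at 37 °C. Resorufin formed during a further 4 h with CellTiter-Blue is detected by fluorescence emission at 590 nm.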

BXPC3 = assay: CellTiter-Blue cell-based survival/proliferation assay, BXPC3; conditions: Homo sapiens, BXPC-3; BXPC3 pancreas tumor cell line, 48 h
Procedure, shortened: as §1

PLCPRF5 = assay: CellTiter-Blue cell-based survival/proliferation assay, PLCPRF5; conditions: Homo sapiens, PLC-PRF-5; PLC_PRF5 liver tumor cell line, 48 h
Procedure, shortened: as §1

CALU6 = assay: CellTiter-Blue cell-based survival/proliferation assay, CALU6; conditions: Homo sapiens, Calu-6; CALU6 lung tumor cell line, 48 h
Procedure, shortened: as §1

HGC27 = assay: CellTiter-Blue cell-based survival/proliferation assay, HGC27; conditions: Homo sapiens, HGC-27; HGC27 stomach tumor cell line, 48 h
Procedure, shortened: as §1

ACHN = assay: CellTiter-Blue cell-based survival/proliferation assay, ACHN; conditions: Homo sapiens; ACHN kidney tumor cell line, 48 h
Procedure, shortened: as §1

PANC1 = assay: CellTiter-Blue cell-based survival/proliferation assay, PANC1; conditions: Homo sapiens, PANC-1; PANC_1 pancreas tumor cell line, 48 h
Procedure, shortened: as §1

HCT116 = assay: CellTiter-Blue cell-based survival/proliferation assay, HCT116; conditions: Homo sapiens, HCT-116; HCT116 colorectal tumor cell line, 48 h
Procedure, shortened: as §1

HEPG2 = assay: CellTiter-Blue cell-based survival/proliferation assay, HEPG2; conditions: Homo sapiens; HEPG2 liver tumor cell line, 48 h
Procedure, shortened: as §1

A498 = assay: CellTiter-Blue cell-based survival/proliferation assay, A498; conditions: Homo sapiens; A498 kidney tumor cell line, 48 h
Procedure, shortened: as §1

TOV112D = assay: CellTiter-Blue cell-based survival/proliferation assay, TOV112D; conditions: Homo sapiens; TOV112D ovary tumor cell line, 48 h
Procedure, shortened: as §1

MDAMB231 = assay: CellTiter-Blue cell-based survival/proliferation assay, MDAMB231; conditions: Homo sapiens, MDA-MB-231; MDAMB231 breast tumor cell line, 48 h
Procedure, shortened: as §1

REC1 = assay: CellTiter-Blue cell-based survival/proliferation assay, REC1; conditions: Homo sapiens, Lymphoma cell line REC1, 48 h, read-out: Anti-tumoral activity (measured IC50) REC1
Procedure, shortened: as §1

KARPAS299 = assay: CellTiter-Blue cell-based survival/proliferation assay, KARPAS299; conditions: Homo sapiens, KARPAS-299, Lymphoma cell line KARPAS299, 48 h, read-out: Anti-tumoral activity (measured IC50) KARPAS299
Procedure, shortened: as §1

DLD1 = assay: CellTiter-Blue cell-based survival/proliferation assay, DLD1; conditions: Homo sapiens, DLD-1; DLD_1 colorectal tumor cell line, 48 h
Procedure, shortened: as §1

SW579 = assay: CellTiter-Blue cell-based survival/proliferation assay, SW579; conditions: Homo sapiens; SW579 head & neck tumor cell line, 48 h
Procedure, shortened: as §1

BT20 = assay: CellTiter-Blue cell-based survival/proliferation assay, BT20; conditions: Homo sapiens, BT-20; BT20 breast tumor cell line, 48 h
Procedure, shortened: as §1

HL60 = assay: CellTiter-Blue cell-based survival/proliferation assay, HL60; conditions: Homo sapiens, HL-60, Leukemia cell line HL60, 48 h, read-out: Anti-tumoral activity (measured IC50) HL60
Procedure, shortened: as §1

HUT78 = assay: CellTiter-Blue cell-based survival/proliferation assay, HUT78; conditions: Homo sapiens, Lymphoma cell line HUT78, 48 h, read-out: Anti-tumoral activity (measured IC50) HUT78
Procedure, shortened: as §1

HEP2 = assay: CellTiter-Blue cell-based survival/proliferation assay, HEP2; conditions: Homo sapiens, HEp-2; HEP2 head & neck tumor cell line, 48 h
Procedure, shortened: as §1

H1299 = assay: CellTiter-Blue cell-based survival/proliferation assay, H1299; conditions: Homo sapiens, NCI-H1299; H1299 lung tumor cell line, 48 h
Procedure, shortened: as §1

[1] = test system: panel of about 34 human tumor cell lines; assay: Cell-based proliferation screening on panel of tumor cell lines; conditions: solid tumor cell line, cell line unknown, 48 h, read-out: IC50, solid tumor cell line of column 6 (last section of Table 3)
Procedure, shortened: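 CellTiter-Blue survival assay with 1·10^4 cells/well, each line treated 48 h at 37° C with 1/10 serial dilutions from 0 to 10 μM. Resorufin formed during a 4 h reagent incubation is read by fluorescence at 590 nm. A cell-free blank serves as background.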

DU145 = assay: CellTiter-Blue cell-based survival/proliferation assay, DU145; conditions: Homo sapiens, DU-145; DU145 prostate tumor cell line, 48 h
Procedure, shortened: as §1

PC3 = assay: CellTiter-Blue cell-based survival/proliferation assay, PC3; conditions: Homo sapiens, PC-3; PC3 prostate tumor cell line, 48 h
Procedure, shortened: as §1

OPM2 = assay: CellTiter-Blue cell-based survival/proliferation assay, OPM2; conditions: Homo sapiens, OPM-2, Myeloma cell line OPM2, 48 h, read-out: Anti-tumoral activity (measured IC50) OPM2
Procedure, shortened: as §1

MESSA = assay: CellTiter-Blue cell-based survival/proliferation assay, MESSA; conditions: Homo sapiens, MES-SA; MESSA ovary tumor cell line, 48 h
Procedure, shortened: as §1

AGS = assay: CellTiter-Blue cell-based survival/proliferation assay, AGS; conditions: Homo sapiens; AGS stomach tumor cell line, 48 h
Procedure, shortened: as §1

CLS354 = assay: CellTiter-Blue cell-based survival/proliferation assay, CLS354; conditions: Homo sapiens, CLS-354; CLS354_4 head & neck tumor cell line, 48 h
Procedure, shortened: as §1

Work on `CCOCc1ccc(C)c(Nc2ncc(-c3ccc(N4CCN(CCN)C4=O)cc3)o2)c1` [Example 045, 1-(2-Amino-ethyl)-3-{4-[2-(5-ethoxymethyl-(2-methyl-phenylamino))-oxazol-5-yl]-phenyl}-imidazolidin-2-one] yielded an IC50 (A549) of over 1 µM, an IC50 (BXPC3) of over 1 µM and an IC50 (PLCPRF5) of over 1 µM. For the same compound, the IC50 (CALU6) was over 1 µM, the IC50 (HGC27) was over 1 µM and the IC50 (ACHN) was over 1 µM. The IC50 (PANC1) was over 1 µM, the IC50 (HCT116) was over 1 µM and the IC50 (HEPG2) was over 1 µM. The IC50 (A498) was over 1 µM, the IC50 (TOV112D) was over 1 µM and the IC50 (MDAMB231) was over 1 µM. The IC50 (REC1) was over 1 µM, the IC50 (KARPAS299) was over 1 µM and the IC50 (DLD1) was over 1 µM. For the same compound, the IC50 (SW579) was over 1 µM, the IC50 (BT20) was over 1 µM and the IC50 (HL60) was over 1 µM. The IC50 (HUT78) was over 1 µM, the IC50 (HEP2) was over 1 µM and the IC50 (H1299) was over 1 µM. For the same compound, the IC50 [1] was over 1 µM, the IC50 (DU145) was over 1 µM and the IC50 (PC3) was over 1 µM. For the same compound, the IC50 (OPM2) was over 1 µM, the IC50 (MESSA) was over 1 µM and the IC50 (AGS) was over 1 µM. The IC50 (CLS354) was over 1 µM.

Work on `CC(=O)NCCOCc1ccc(C)c(Nc2ncc(-c3ccc(-n4cccn4)cc3)o2)c1` [Example 025, N-(2-{4-Methyl-3-[5-(4-pyrazol-1-yl-phenyl)-oxazol-2-ylamino]-benzyloxy}-ethyl)-acetamide] yielded an IC50 (A549) of over 1 µM, an IC50 (BXPC3) of over 1 µM and an IC50 (PLCPRF5) of over 1 µM. The IC50 (CALU6) was over 1 µM, the IC50 (HGC27) was over 1 µM and the IC50 (ACHN) was over 1 µM. For the same compound, the IC50 (PANC1) was over 1 µM, the IC50 (HCT116) was over 1 µM and the IC50 (HEPG2) was over 1 µM. The IC50 (A498) was over 1 µM, the IC50 (TOV112D) was over 1 µM and the IC50 (MDAMB231) was over 1 µM. The IC50 (REC1) was over 1 µM, the IC50 (KARPAS299) was over 1 µM and the IC50 (DLD1) was over 1 µM. For the same compound, the IC50 (SW579) was over 1 µM, the IC50 (BT20) was over 1 µM and the IC50 (HL60) was over 1 µM. The IC50 (HUT78) was over 1 µM, the IC50 (HEP2) was over 1 µM and the IC50 (H1299) was over 1 µM. For the same compound, the IC50 [1] was over 1 µM, the IC50 (DU145) was over 1 µM and the IC50 (PC3) was over 1 µM. It also gave an IC50 (OPM2) of over 1 µM, an IC50 (MESSA) of over 1 µM and an IC50 (AGS) of over 1 µM. It also gave an IC50 (CLS354) of over 1 µM.

In the case of `Cc1ccc(OCCN2CCOCC2)cc1Nc1ncc(-c2ccc(-n3cccn3)cc2)o1` [Example 029, [2-Methyl-5-(2-morpholin-4-yl-ethoxy)-phenyl]-[5-(4-pyrazol-1-yl-phenyl)-oxazol-2-yl]-amine], the IC50 (A549) is reported as over 1 µM, the IC50 (BXPC3) is reported as over 1 µM and the IC50 (PLCPRF5) is reported as over 1 µM. For the same compound, the IC50 (CALU6) was over 1 µM, the IC50 (HGC27) was over 1 µM and the IC50 (ACHN) was over 1 µM. The IC50 (PANC1) was over 1 µM, the IC50 (HCT116) was over 1 µM and the IC50 (HEPG2) was over 1 µM. The IC50 (A498) was over 1 µM, the IC50 (TOV112D) was over 1 µM and the IC50 (MDAMB231) was over 1 µM. The IC50 (REC1) was over 1 µM, the IC50 (KARPAS299) was over 1 µM and the IC50 (DLD1) was over 1 µM. It also gave an IC50 (SW579) of over 1 µM, an IC50 (BT20) of over 1 µM and an IC50 (HL60) of over 1 µM. The IC50 (HUT78) was over 1 µM, the IC50 (HEP2) was over 1 µM and the IC50 (H1299) was over 1 µM. The IC50 [1] was over 1 µM, the IC50 (DU145) was over 1 µM and the IC50 (PC3) was over 1 µM. It also gave an IC50 (OPM2) of over 1 µM, an IC50 (MESSA) of over 1 µM and an IC50 (AGS) of over 1 µM. For the same compound, the IC50 (CLS354) was over 1 µM.

Work on `CNC(=O)c1ccc(C)c(Nc2ncc(-c3ccc(-n4cccn4)cc3)o2)c1` [Example 031, 4,N-Dimethyl-3-[5-(4-pyrazol-1-yl-phenyl)-oxazol-2-ylamino]-benzamide] yielded an IC50 (A549) of over 1 µM, an IC50 (BXPC3) of over 1 µM and an IC50 (PLCPRF5) of over 1 µM. The IC50 (CALU6) was over 1 µM, the IC50 (HGC27) was over 1 µM and the IC50 (ACHN) was over 1 µM. It also gave an IC50 (PANC1) of over 1 µM, an IC50 (HCT116) of over 1 µM and an IC50 (HEPG2) of over 1 µM. It also gave an IC50 (A498) of over 1 µM, an IC50 (TOV112D) of over 1 µM and an IC50 (MDAMB231) of over 1 µM. The IC50 (REC1) was over 1 µM, the IC50 (KARPAS299) was 0.1 to 0.5 µM and the IC50 (DLD1) was over 1 µM. For the same compound, the IC50 (SW579) was over 1 µM, the IC50 (BT20) was over 1 µM and the IC50 (HL60) was over 1 µM. For the same compound, the IC50 (HUT78) was over 1 µM, the IC50 (HEP2) was over 1 µM and the IC50 (H1299) was over 1 µM. For the same compound, the IC50 [1] was over 1 µM, the IC50 (DU145) was over 1 µM and the IC50 (PC3) was over 1 µM. The IC50 (OPM2) was over 1 µM, the IC50 (MESSA) was over 1 µM and the IC50 (AGS) was over 1 µM. For the same compound, the IC50 (CLS354) was over 1 µM.

Work on `CCOCc1ccc(C)c(Nc2ncc(-c3ccc(N4CCN(C)C4=O)cc3)o2)c1` [Example 044, 1-{4-[2-(5-Ethoxymethyl-(2-methyl-phenylamino))-oxazol-5-yl]-phenyl}-3-methyl-imidazolidin-2-one] yielded an IC50 (A549) of over 1 µM, an IC50 (BXPC3) of over 1 µM and an IC50 (PLCPRF5) of over 1 µM. For the same compound, the IC50 (CALU6) was over 1 µM, the IC50 (HGC27) was over 1 µM and the IC50 (ACHN) was over 1 µM. It also gave an IC50 (PANC1) of over 1 µM, an IC50 (HCT116) of over 1 µM and an IC50 (HEPG2) of over 1 µM. It also gave an IC50 (A498) of over 1 µM, an IC50 (TOV112D) of over 1 µM and an IC50 (MDAMB231) of over 1 µM. It also gave an IC50 (REC1) of 0.1 to 0.5 µM, an IC50 (KARPAS299) of 0.1 to 0.5 µM and an IC50 (DLD1) of over 1 µM. It also gave an IC50 (SW579) of over 1 µM, an IC50 (BT20) of over 1 µM and an IC50 (HL60) of 0.1 to 0.5 µM. It also gave an IC50 (HUT78) of 0.5 to 1 µM, an IC50 (HEP2) of over 1 µM and an IC50 (H1299) of over 1 µM. The IC50 [1] was 0.1 to 0.5 µM, the IC50 (DU145) was over 1 µM and the IC50 (PC3) was 0.5 to 1 µM. For the same compound, the IC50 (OPM2) was 0.5 to 1 µM, the IC50 (MESSA) was over 1 µM and the IC50 (AGS) was over 1 µM. The IC50 (CLS354) was 0.5 to 1 µM.
